In US8394758B2, “Tumor-targeting peptides and uses thereof” (Academia Sinica, priority 2008, dated 2013):

Tests used:
[1] = test system: Non-small cell lung cancer xenografts; assay: Doxorubicin levels in tumor tissue and tumor cell nuclei (spectrofluorometry); format: in vivo, SCID mice; conditions: 2 mg/kg doxorubicin
Method: Non-small cell lung cancer xenografts (˜300 mm^3) were induced in SCID mice following the method described in Example 2 above. These mice were treated with PIVO-2-LD, PIVO-8-LD, PIVO-24-LD, LD, and FD at a doxorubicin dose of 2 mg/kg and sacrificed 1 h, 4 h, or 24 h later. Blood samples were collected from the mice via submaxillary punctures and plasma samples were prepared therefrom. In addition, xenografts and normal organs were removed, part of them being homogenized to isolate cell nuclei. Doxorubicin was extracted either from the tumor tissue or from the nuclei following the method described in Laginha et al., Clin. Cancer Res. 11:6944-6949, 2005 and Mayer et al., J. Pharmacol. Exp. Ther. 280:1406-1414, 1997. The amount of doxorubicin was determined by spectrofluorometry at λex 485/20 nm and λcm 645/40 nm (Synergy HT Multi-Detection Microplate Reader, BioTek Instruments, Winooski, Vt. 05404 USA). Based on the amounts of doxorubicin in tumor tissues at different time points, concentration-time curves of doxorubicin were prepared and the areas under the curves from 0-48 hours (AUC0-48 hours) were determined.

tumor xenografts = assay: Histopathology of tumor tissues by H&E staining; format: in vivo, SCID mice; conditions: doxorubicin 1 mg/kg twice a week for four weeks
Method: Mouse body weights and tumor lengths/widths were measured twice a week with calipers. The volume of a tumor was calculated using the formula: length×(width)×0.52.

[2] = test system: H460 cells (lung cancer) xenografts; assay: In vivo homing of phage clones to lung cancer xenografts, alone or with synthetic peptide (phage titer); design: species or system SCID mice; conditions: 100 μg synthetic peptide co-injected
Method: Eight minutes after the injection, the phage-treated SCID mice were perfused with 50 ml PBS to wash away phage particles unbound to tissues. Normal organs (e.g., lung, heart, brain) and tumor mass were removed from the mice, weighed, washed with PBS, and homogenized to release tissue-bound phage particles, if any. The released phage particles were titered using bacterium ER2738 (New England BioLabs, MA, USA) grown on IPTG-X-gal-containing agar plates, and amplified in the same bacterium following the manufacturer's protocol.
H460 cells (a lung cancer cell line) were injected subcutaneously (s.c.) into the dorsolateral flanks of SCID mice (4-6 weeks of age) to form lung cancer xenografts. Each of phage clones IVO 2, IVO 8, and IVO 24, displaying peptide SVSVGMKPSPRP (SEQ ID NO:1), SNPFSKPYGLTV (SEQ ID NO:3), and YPHYSLPGSSTL (SEQ ID NO:5), respectively, was injected (i.v.) into the tail veins of the mice bearing the xenografts (˜100 mm^3), either alone or with 100 μg synthetic peptides SVSVGMKPSPRP (SEQ ID NO:1), SNPFSKPYGLTV (SEQ ID NO:3), or YPHYSLPGSSTL (SEQ ID NO:5). Normal organs and tumor mass were removed from these mice and processed as described in Example 1 above. The phage titers in the normal organs and tumor mass were determined following the procedure also described in Example 1.

[3] = test system: lung tumor xenografts, tumor neovasculature; assay: Immuno-staining of phage (anti-M13) and blood vessels (anti-CD31) in lung tumor xenografts and normal organs; format: in vivo, SCID mice
Text: The accumulation of the phage clones in tumor mass was further examined by an immuno-staining assay, using an anti-M13 phage monoclonal antibody (Amersham Biosciences, Uppsala, Sweden). Briefly, after injection of the phage clones, normal organ samples and tumor samples were obtained, each divided into two parts. Bound phage particles were released from one part of the samples and titered using bacterium ER2738. The other part of each of the samples was embedded in Optimal Cutting Temperature (OCT, Tissue-Tek, NL, USA). The OCT-embedded samples (frozen) were sectioned (5 micron) and transferred to cold PBS. The sections were fixed with acetone-methanol (1:1) on slides, washed with PBS, and immersed in a blocking buffer (1% BSA in PBS) for 1 h. Then, the slides were incubated with rat anti-mouse CD31 antibody (an antibody recognizing blood vessels; BD Pharmingen, MA, USA.) and rabbit anti-rat Ig antibody (Stressgen, Canada), and immersed in Rhodamine labeled goat anti-rabbit Ig antibody (Jackson ImmunoResearch, PA, USA). The slides were further incubated with mouse anti-M13 phage monoclonal antibody (Amersham Biosciences, Uppsala, Sweden), then with FITC-labeled goat anti-mouse Ig antibody (Jackson ImmunoResearch, PA, USA), and finally immersed in a solution containing Hoechst 33258 (Molecular Probe, OR, USA). After being washed and mounted with a mounting medium (Vector, Calif., USA), the slides were examined under a Leica Confocal Microscope (TCS-SP5-AOBS). Images of the slides were processed with the Leica Application Suite Advanced Fluorescence software.

Nucleus (AUC0-48 h) doxorubicin ([1]; tumor cell nuclei (bioavailable doxorubicin)) [µg·h/g] | Tumor (AUC0-48 h) doxorubicin ([1]; tumor tissue) [µg·h/g] | Compound | necrotic/apoptotic area (combined) in tumor xenografts (tumor xenografts) | inhibition by synthetic peptide of accumulation in tumor mass of the phage clone displaying the same peptide [2] | blocking by synthetic peptide of binding of the corresponding phage clone to lung tumor tissues [3]
3.68 | 10.23 | COc1cccc2c1C(=O)c1c(O)c3c(c(O)c1C2=O)C[C@@](O)(C(=O)CO)C[C@@H]3O[C@H]1C[C@H](N)[C@H](O)[C@H](C)O1 [FD, doxorubicin] | only a moderate necrotic/apoptotic area | – | –
– | – | SNPFSKPYGLTV (Tumor-Targeting Peptide) | – | inhibited accumulation | blocked binding
– | – | SVSVGMKPSPRP (Tumor-Targeting Peptide) | – | inhibited accumulation of phage clone IVO 2 | blocked binding
– | – | YPHYSLPGSSTL (Tumor-Targeting Peptide) | – | inhibited accumulation | blocked binding
